In experiment [1] the target is T1, PxutCSP19-T2 (Papilio xuthus, UniProt A0A194QJK0).
T1 sequence (A0A194QJK0 53-142): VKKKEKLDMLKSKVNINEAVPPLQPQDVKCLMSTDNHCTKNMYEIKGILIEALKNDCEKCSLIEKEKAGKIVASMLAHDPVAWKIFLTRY
Kind of experiment: Binding of fluorescent probe 1-NPN to PxutCSP19-T2 (titration, Scatchard). The conditions noted are these: read-out: K1-NPN (binding constant of 1-NPN). On the procedure: (§1) In order to investigate the ligand-binding properties of PxutCSP19 to host odorants and insecticides, we first asked whether this fluorescent probe 1-NPN was available for the binding of PxutCSP19. To calculate the binding ability of PxutCSP19 to 1-NPN, we titrated different final concentrations of 1-NPN (2~20 μM) into Tris-HCl buffer (pH 7.4) containing 2 μM PxutCSP19. The binding constant (K1-NPN) of 1-NPN to this protein was determined with GraphPad Prism 7 (GraphPad Software Inc., San Diego, CA), as previously described. The solution was excited at 337 nm and the emission peak was monitored at 414 nm on an RF-5301PC spectrofluorometer (Shimadzu, Kyoto, Japan) using a quartz micro-cuvette filled with a 100 μL mixture, with 5 nm excitation and emission slit widths. If the host odorant molecules could displace more than 40% of the 1-NPN fluorescence from the binding cavity of PxutCSP19, the compounds would be continuously added up to 36 μM with triplicates. For the binding experiments, each compound would be added into the PxutCSP19/1-NPN (each 2 μM) complex with final concentrations of 2~20 μM. […]

Experiment [2] deals with T2, PxutCSP19-T1 (Papilio xuthus, UniProt A0A194QJK0).
T2 sequence (A0A194QJK0 35-142): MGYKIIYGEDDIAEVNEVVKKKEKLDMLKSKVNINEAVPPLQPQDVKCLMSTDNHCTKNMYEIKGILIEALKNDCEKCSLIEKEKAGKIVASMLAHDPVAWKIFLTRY
The experiment in a line: Binding of fluorescent probe 1-NPN to PxutCSP19-T1 (titration, Scatchard). The conditions noted are these: read-out: K1-NPN (binding constant of 1-NPN). As for the experimental part: as §1

Experiment [3] has as its target T3, PxutCSP19 (Papilio xuthus, UniProt A0A194QJK0). Kind of experiment: Binding of fluorescent probe 1-NPN to wildtype PxutCSP19 (titration, Scatchard). On the procedure:
as §1

Experiment [4] addresses T3, PxutCSP19. The experiment in a line: Fluorescence competitive binding assay (1-NPN displacement), wildtype PxutCSP19. The conditions noted are these: for inhibition at 20 µM: read-out: F.D. (fluorescent displacement rate of ligands), Wildtype (WT), ligand at 20 μM, PxutCSP19/1-NPN each 2 μM, NB = no binding. An excerpt: The open reading frame (ORF) of PxutCSP19 was cloned with a PrimeSTAR®® Max DNA Polymerase (TaKaRa, Liaoning, Dalian, China) and gene-specific primers containing restriction enzyme sites (BamH I and Xho I) (Table S2). The PCR products were detected on a 1.5% (w/v) agarose gel, and the expected bands were cut and purified using a HiPure Gel Pure DNA Mini Kit (Magen, Guangzhou, China). Next, BamH I and Xho I were used to digest the PxutCSP19 products and pET-30a (+) plasmids, followed by purification. A T4 DNA ligase (Thermo Fisher Scientific, Waltham, MA, USA) was applied to the construction of the recombinant plasmids pET-30a (+)/PxutCSP19. After being confirmed by sequencing, the plasmids were transformed into BL21 (DE3) competent cells so as to express recombinant proteins with 1.0 mM isopropyl β-D-thiogalactoside (IPTG). Because this recombinant protein pET-30a (+)/PxutCSP19 was insoluble, we applied a protein denaturation–renaturation approach to purify PxutCSP19 with an affinity chromatography technique, in which the denaturation buffer included 8 M urea and 1.0 mM β-mercaptoethanol.
(§2) In order to investigate the ligand-binding properties of PxutCSP19 to host odorants and insecticides, we first asked whether this fluorescent probe 1-NPN was available for the binding of PxutCSP19. To calculate the binding ability of PxutCSP19 to 1-NPN, we titrated different final concentrations of 1-NPN (2~20 μM) into Tris-HCl buffer (pH 7.4) containing 2 μM PxutCSP19. The binding constant (K1-NPN) of 1-NPN to this protein was determined with GraphPad Prism 7 (GraphPad Software Inc., San Diego, CA), as previously described. The solution was excited at 337 nm and the emission peak was monitored at 414 nm on an RF-5301PC spectrofluorometer (Shimadzu, Kyoto, Japan) using a quartz micro-cuvette filled with a 100 μL mixture, with 5 nm excitation and emission slit widths. If the host odorant molecules could displace more than 40% of the 1-NPN fluorescence from the binding cavity of PxutCSP19, the compounds would be continuously added up to 36 μM with triplicates. For the binding experiments, each compound would be added into the PxutCSP19/1-NPN (each 2 μM) complex with final concentrations of 2~20 μM. […] We used the Ki values to compare the binding affinities of various ligands with the equation: Ki = [IC50]/(1 + [1-NPN]/K1-NPN), where IC50 represents the ligand concentrations displacing one half of the initial protein/1-NPN fluorescence, and [1-NPN] is the free concentration of 1-NPN at 2 μM.

Experiment [5] concerns the target T2, PxutCSP19-T1. Kind of experiment: Fluorescence competitive binding assay (1-NPN displacement), truncated PxutCSP19-T1. The conditions noted are these: for inhibition at 20 µM: T1 (17 N-terminal residues truncated), ligand at 20 μM, read-out: F.D. (fluorescent displacement rate of ligands); for Ki / IC50: T1; for Ki: Ki = [IC50]/(1 + [1-NPN]/K1-NPN); for IC50: read-out: IC50. On the procedure: as §2
(§3) To determine the effects of an extended N-terminal sequence (approximately 35 amino acids) on the binding specificity of PxutCSP19 to ligands, we next constructed two truncated PxutCSP19s. Firstly, the front 17 amino acids (i.e., EITIGGIERTMSPGVKS, defined as PxutCSP19-T1) and the front 35 amino acids (i.e., […], defined as PxutCSP19-T2) of the N-terminal region without the signal peptide were truncated, respectively. Secondly, the two truncated ORFs (PxutCSP19-T1: 360 bp and PxutCSP19-T2: 306 bp) of PxutCSP19s were separately amplified using RT–PCR with gene-specific primers (Table S2). After that, the amplified products were sub-cloned into pET-30a (+), i.e., pET-30a (+)/PxutCSP19-T1 and pET-30a (+)/PxutCSP19-T2. Using the above-described methods for the expression and purification of proteins, we obtained two truncated proteins. Furthermore, the binding characteristics of the truncated PxutCSP19s to ligands with high affinities were investigated, representing six host odorants and eight insecticides.

Experiment [6] has as its target T1, PxutCSP19-T2. Kind of experiment: Fluorescence competitive binding assay (1-NPN displacement), truncated PxutCSP19-T2. The conditions noted are these: for inhibition at 20 µM: T2 (35 N-terminal residues truncated), ligand at 20 μM, read-out: F.D. (fluorescent displacement rate of ligands); for Ki / IC50: T2; for Ki: Ki = [IC50]/(1 + [1-NPN]/K1-NPN); for IC50: read-out: IC50. On the procedure:
as §2, §3

The record followed here is article PMC11276849, “A Female-Biased Chemosensory Protein PxutCSP19 in the Antennae of Papilio xuthus Tuned to Host Volatiles and Insecticides” (Insects, 2024).

Structures are written as SMILES.

T3 sequence (A0A194QJK0 entry or part of it): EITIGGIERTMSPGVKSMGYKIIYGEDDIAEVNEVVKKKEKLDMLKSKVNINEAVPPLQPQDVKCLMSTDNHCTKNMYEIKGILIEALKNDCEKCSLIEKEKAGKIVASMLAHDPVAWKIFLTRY

Consider `c1ccc(Nc2cccc3ccccc23)cc1` [1-NPN, N-phenyl-1-naphthylamine], for which the Kd on PxutCSP19-T2 [1] was found to be 2.5 ± 0.25 µM; at PxutCSP19-T1 [2], 2.12 ± 0.47 µM; on PxutCSP19 [3], 2.65 ± 0.35 µM.
`C=C/C(C)=C/CC=C(C)C` [Ocimene]: the IC50 at PxutCSP19 [4] was determined as 31.3 ± 1.73 µM; at PxutCSP19-T1 [5] it was 31.7 ± 1.86 µM; at PxutCSP19-T2 [6] it was 32.8 ± 1.09 µM. The inhibition at 20 µM on PxutCSP19 [4] was over 40%; on PxutCSP19-T1 [5] it was 43.1%; on PxutCSP19-T2 [6], 35.2%. The Ki was found to be 19.9 ± 1.17 µM at PxutCSP19-T1 [5] and 21.6 ± 0.72 µM at PxutCSP19-T2 [6].
Turning to `C=CC(C)(O)CCC=C(C)C` (stereo not drawn) [Linalool], the IC50 was determined as 33.8 ± 0.84 µM at PxutCSP19 [4], 33.1 ± 1.34 µM at PxutCSP19-T1 [5] and 34.6 ± 0.9 µM on PxutCSP19-T2 [6]. In addition, the figures for the inhibition at 20 µM on PxutCSP19 [4], at PxutCSP19-T1 [5] and on PxutCSP19-T2 [6] were over 40%, 39.8% and 40.3%, respectively. Moreover, the results for the Ki on PxutCSP19-T1 [5] and at PxutCSP19-T2 [6] were 20.8 ± 0.85 µM and 22.8 ± 0.59 µM, respectively.
Consider `O=C(NC(=O)c1c(F)cccc1F)Nc1cc(Cl)c(OC(F)(F)C(F)F)c(Cl)c1` [Hexaflumuron], for which, at PxutCSP19 [4], the IC50 was determined as 12.1 ± 2.36 µM and the inhibition at 20 µM was 59.5%. On PxutCSP19-T1 [5], the inhibition at 20 µM worked out at 56.5%, the Ki was 7.78 ± 0.46 µM and the IC50 worked out at 12.4 ± 0.73 µM. Further, on PxutCSP19-T2 [6], the inhibition at 20 µM is 59.6%, the Ki worked out at 8.02 ± 1.03 µM and the IC50 turned out to be 12.2 ± 1.56 µM.
